One experiment concerns the target T1, human leukocyte elastase (Homo sapiens, UniProt P08246).
T1 sequence (P08246 30-267): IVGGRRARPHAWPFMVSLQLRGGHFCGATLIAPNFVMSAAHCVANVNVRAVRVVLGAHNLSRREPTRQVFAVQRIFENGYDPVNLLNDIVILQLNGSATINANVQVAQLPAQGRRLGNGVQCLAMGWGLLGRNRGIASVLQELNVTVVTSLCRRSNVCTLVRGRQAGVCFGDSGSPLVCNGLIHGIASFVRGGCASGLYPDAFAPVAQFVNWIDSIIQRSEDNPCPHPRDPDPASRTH
The experiment in a line: elastase inhibition using human leukocyte elastase (kon and Ki*). Format: biochemical. To be noted: for Ki: Ki* = koff/kon, read-out: Elastase Ki *; for kon: rate of inactivation of enzyme, value is 10^-3 × kon, read-out: Elastase 10^-3 × kon.

The target of another experiment is α-Chymotrypsin (Bos taurus, UniProt P00766). Put plainly: α-chymotrypsin inhibition (kon and Ki*). Format: biochemical. To be noted: for Ki: Ki* = koff/kon; for kon: read-out: α-Chymotrypsin 10^-3 × kon. As for the experimental part: Measurement of the inhibition constant, Ki, of a HLE-inhibitor complex has been described for "truly reversible inhibition constants" usually concerning competitive inhibitors. [Cha, Biochem. Pharmacol., 24, 2177-2185 (1975)]. […] Thus, instead of measuring a Ki, a Ki * is calculated which is defined as the ratio of the koff /kon, the rate of reactivation of the enzyme to the rate of inactivation of the enzyme. The values of koff and kon are measured and Ki * is then calculated. The rate of inactivation, kon, of enzymatic activity was determined for the compounds tested by measuring the enzyme activity of an aliquot of the respective enzyme as a function of time after addition of the test compound. […] The rate of inactivation is then equal to [formula] where [I] is the concentration of the inhibiting compound. The reactivation constant, koff, is similarly determined and the inhibition constant, Ki *, is then calculated as Ki *=koff /kon The values obtained for kon and Ki * for specific substituted saccharin derivatives are shown in TABLE F, the compounds being identified by the Example numbers above where their preparations are described.

A word on the Ki: it is a measure of affinity in units of concentration, obtained from inhibition or displacement. For orientation: kon means the rate constant with which the complex forms. As to `O=C1c2ccccc2S(=O)(=O)N1C[S+]([O-])c1ncccn1` (stereo not drawn) [Example 13, 2-(2-pyrimidylsulfinylmethyl)saccharin], on human leukocyte elastase, the Ki was 285 nM and the kon turned out to be 300 M⁻¹ s⁻¹. Further, at α-Chymotrypsin, the Ki came to 423 nM and the kon was determined as 2600 M⁻¹ s⁻¹.

Consider `O=C1c2ccccc2S(=O)(=O)N1CS(=O)(=O)c1ncccn1` [Example 14, 2-(2-pyrimidylsulfonylmethyl)saccharin], for which, at human leukocyte elastase, the Ki amounted to 138 nM and the kon was 600 M⁻¹ s⁻¹. Moreover, at α-Chymotrypsin, the Ki was 392 nM and the kon is 2800 M⁻¹ s⁻¹.

Regarding `O=C1c2c(-c3ccccc3)cccc2S(=O)(=O)N1CCl` [Example 18, 2-chloromethyl-4-phenylsaccharin], at human leukocyte elastase, the Ki came to 100 nM and the kon worked out at 1000 M⁻¹ s⁻¹. On α-Chymotrypsin, the Ki was 620 nM and the kon stood at 210 M⁻¹ s⁻¹.

These data come from patent US5874432A, “Saccharin derivatives useful as proteolytic enzyme inhibitors and compositions and method of use thereof” (priority 1997, dated 1999).
